Measurements as given in patent US20080076739A1, “Methods for treating arthritis using triheterocyclic compounds” (Gemin X Biotechnologies Inc., priority 2005, published 2008).
pIC50: −log10 of the molar value. Counter-ions that a name gives are not always drawn. Like-named read-outs stand apart in the source and are kept apart here. Each block holds one compound with its values, some of them ahead of it.

How the values were obtained:
[1] = test system: H1299 human non-small cell lung cancer cells; assay: Cell viability by cellular ATP levels (ViaLight), H1299; assay type: cell-based
Procedure: (§1) One day after plating, the cells were treated with various concentrations of Compound 1 Tartrate. Stock solutions of the Compound 1 Tartrate were prepared in dimethyl sulfoxide (Sigma-Aldrich Inc., St. Louis, Mo., USA), diluted in the recommended media and then added to the cells. The total dimethyl sulfoxide on the cells was 1%. […] The results were plotted relative to untreated control cells, which were set at a value of 100.
(§2) As depicted in Table 4, these compounds were efficient in decreasing cellular ATP levels in H1299 and C33A cancer cell lines. […], these compounds are believed to have utility in the in vivo methods of the invention, i.e., treatment and prevention of cancer and viral infections, respectively. It should be noted that, although this cell-based assay is believed to be indicative of anti-oncogenic activity in vivo, it is not the only useful assay for evaluating the anti-oncogenic activity of Triheterocyclic Compounds of the invention. In addition, the anti-viral and other biological activity of compounds of the invention can be determined and evaluated in other assay systems known to the skilled artisan.

[2] = test system: C33A cervical carcinoma cells; assay: Cell viability by cellular ATP levels (ViaLight), C33A; assay type: cell-based; details: Homo sapiens; for IC50: C-33-A, read-out: IC50 (μM) C33A, Effect on Cancer Cells Viability
Procedure: as §1, §2

[3] = Body weight and deaths of SCID mice bearing C33A tumors; assay type: in vivo, CB17 SCID/SCID mice; details: cisplatin 4 mg/kg IP; days 29 and 32, group of ten mice
Procedure: (§3) There were three treatment groups of ten mice each: (a) a negative control group, (b) a positive control group and (c) a group treated with Compound 1 Tartrate.
(§4) Treatments started on day fourteen after C33A cells transplantation. Compound 1 Tartrate was administered IV once daily for five consecutive days at a dose of 4.5 mg/kg. Compound 1 Tartrate was prepared fresh daily in a vehicle solution of 5% Dextrose (Abbot Laboratories, QC, Canada) and 2% polysorbate 20 (Sigma, St. Louis, Mo., USA). The negative control group was treated with vehicle alone. The injection volume for both Compound 1 Tartrate group and the negative control group was 150 μl.
(§5) Observation continued for 40 days after initial tumor implantation.

[4] = test system: human prostatic adenocarcinoma cancer PC3 cells; assay: Growth of PC3 prostatic tumors in SCID mice; assay type: in vivo; details: 5 consecutive intravenous injections; Compound 1 Mesylate Salt 4.84 μMoles/Kg; Compound 66 4.84 or 14.51 μMoles/Kg (FIG. 6)
Procedure: The human prostatic adenocarcinoma cancer PC3 cells were purchased from the American Type Culture Collection (ATCC). These cells were confirmed to be free of mycoplasma infection. Cells were maintained in the Roswell Park Memorial Institute (RPMI), supplemented with 10% inactivated fetal bovine serum and 1% penicillin-streptomycin-L-Glutamine, under 5% carbon dioxide (CO2) at 37° C. For prostatic-tumor induction, cells were grown lower than 70% confluence in complete medium and then collected with trypsin (Bio Whittaker, Rockland, Me., USA). Cells were then centrifuged and washed 2 times in phosphate buffer solution (PBS) and resuspended in PBS at 1.5×10^6 cells/0.1 mL. PC3 cells were then transplanted subcutaneously into the flank of SCID mice (Charles River Laboratories, Wilmington, Mass., USA), as a suspension of tumor cells (1.5×10^6 cells in 100 μL PBS), under a laminar airflow hood. Eleven (11) days later, the size of each tumor was measured. […] Relative tumor size and volume was calculated as follows: length (cm)×[width (cm)]^2/2. […]

[5] = Shelf stability (precipitation) of formulated compound; assay type: physicochemical; details: 72 hours after preparation; 0.6 mg/mL in 9.6% polyethylene glycol 300, 0.4% polysorbate 20 and 5% dextrose
Procedure: Compound 1 Tartrate salt solubility is equal to 0.1 mg/mL. […] This increase in solubility has a positive impact on the shelf stability of formulated Compound 1.

[6] = Solubility (filtration, LC/MS)
Procedure: To determine whether a compound is soluble in a solution, the solution was filtered on 0.2 μM polytetrafluoroethylene filters (Whatman Inc. Clifton, N.J., USA) and the compound concentration in the filtrate was measured by LC/MS and compared to the expected concentration.
The column used was XTerra MS C18: 50×2.1 mm, 3.5 mm column at 20° C. Samples were injected and separated under the following conditions: The mobile phase “A” consisted of 5 mM ammonium formate, 0.1% formic acid in water and mobile phase “B” consisted of 5 mM ammonium formate, 0.1% formic acid in methanol. […] The Mass Spectrometer system consisted of a Waters ZQ2000 single quadrupole mass spectrometer (Waters, Milford, Mass., USA) equipped with an Electrospray Ionization Source (ES). The mass detector was operated in positive ion mode (ES+) and Selected Ion Recording mode (SIR). Compounds were detected at m/z equal to their respective molecular weight plus 1.

[7] = test system: cancer cell lines H1299 and C33A; normal cell lines HMEC and MRC-5; assay: Cellular ATP levels, cancer cell lines compared with normal cell lines; assay type: cell-based
Procedure: as §1

[8] = test system: SW-480 human adenocarcinoma cell line; assay: Cell viability by cellular ATP levels (ViaLight), SW-480; assay type: cell-based; details: SW480, SW-480, Colorectal, ATP levels 72 h post-treatment, read-out: IC50 of Compound 1 tartrate
Procedure: as §1

[9] = test system: OVCAR-3 human ovarian carcinoma cell line; assay: Cell viability by cellular ATP levels (ViaLight), OVCAR-3; assay type: cell-based; details: OVCAR-3, Ovary, ATP levels 72 h post-treatment, read-out: IC50 of Compound 1 tartrate
Procedure: as §1

[10] = test system: MCF-7 human breast cancer cell line; assay: Cell viability by cellular ATP levels (ViaLight), MCF-7; assay type: cell-based; details: MCF7, MCF-7, Breast, ATP levels 72 h post-treatment, read-out: IC50 of Compound 1 tartrate
Procedure: as §1

[11] = test system: PC-3 human prostatic carcinoma cell line; assay: Cell viability by cellular ATP levels (ViaLight), PC-3; assay type: cell-based; details: PC-3, Prostate, ATP levels 72 h post-treatment, read-out: IC50 of Compound 1 tartrate
Procedure: as §1

[12] = test system: HMEC normal mammary epithelial cells; assay: Cell viability by cellular ATP levels (ViaLight), HMEC; assay type: cell-based; details: Homo sapiens, Normal Breast, ATP levels 72 h post-treatment, read-out: IC50 of Compound 1 tartrate
Procedure: as §1

[13] = test system: B16-F1 mouse melanoma cell line; assay: Cell viability by cellular ATP levels (ViaLight), B16-F1; assay type: cell-based; details: B16-F1, Murine Melanoma, ATP levels 72 h post-treatment, read-out: IC50 of Compound 1 tartrate
Procedure: as §1

[14] = test system: A549 human lung carcinoma cell line; assay: Cell viability by cellular ATP levels (ViaLight), A549; assay type: cell-based; details: A549, NSCLC, ATP levels 72 h post-treatment, read-out: IC50 of Compound 1 tartrate
Procedure: as §1

[15] = test system: ADR-RES human breast cancer cell line; assay: Cell viability by cellular ATP levels (ViaLight), NCI/ADR-RES; assay type: cell-based; details: Breast (multi-drug resistant), ATP levels 72 h post-treatment, read-out: IC50 of Compound 1 tartrate
Procedure: as §1

[16] = test system: C33A human cervical cancer cells; assay: Growth of C33A cervical tumors in SCID mice; assay type: in vivo, CB17 SCID/SCID mice; details: 4.5 mg/kg IV once a day for five days (FIG. 3)
Procedure: Viability was examined by staining with trypan blue (Gibco, NY, USA) and only flasks with cell viability greater than 95% were used for in vivo studies.
as §3, §4, §5

[17] = test system: H460 non-small cell lung cancer cell line; assay: Cell viability by cellular ATP levels (ViaLight), H460; assay type: cell-based; details: Homo sapiens, NCI-H460; H460, NSCLC; ATP levels 72 h post-treatment; read-out: IC50 of Compound 1 tartrate
Procedure: as §1

[18] = biological target: T1, human placental alkaline phosphatase (Homo sapiens, UniProt P05187); assay: Conversion of phosphate pro-drug by human placental alkaline phosphatase; assay type: in vitro ADME; details: 15 μM, 0.02 U/100 μL enzyme, pH 7.4, up to 120 minutes (FIG. 4)
T1 construct: purchased Sigma-Aldrich Canada Ltd
Procedure: (§6) The conversion into biologically active drug of phosphate pro-drugs by calf intestinal alkaline phosphatase and human placental alkaline phosphatase was measured in vitro using purified enzymes. Purified calf intestinal alkaline phosphatase (Roche Diagnostic Inc. Laval, Quebec, Canada) or human placental alkaline phosphatase (Sigma-Aldrich Canada Ltd. Oakville, Ontario, Canada) was added at a concentration of 0.02 U/100 μL to a solution containing 15 μM of Compound 66, 20 mM Tris-HCl, pH 7.4 and 0.9% NaCl. The solutions were incubated for 30, 60 or 120 minutes. A solution containing 15 μM of Compound 66, 20 mM Tris-HCl, pH 7.4 and 0.9% NaCl was used as a reference (time=0 minutes). To each solution, an equal volume (100 μL) of ice-cold acetonitrile was added, and then the mixture was vortexed and transferred to glass vials. A standard concentration curve of the pro-drug and the drug was prepared in 10 mM Tris-HCl, pH 7.4, 0.45% NaCl and 50% acetonitrile. All samples were immediately analyzed by LC/MS.

[19] = biological target: T2, calf intestinal alkaline phosphatase (Bos taurus, UniProt P19111); assay: Conversion of phosphate pro-drug by calf intestinal alkaline phosphatase; assay type: in vitro ADME; details: 15 μM, 0.02 U/100 μL enzyme, pH 7.4, up to 120 minutes (FIG. 5)
T2 construct: purchased Roche Diagnostic Inc
Procedure: as §6

[20] = NCI-H1299, read-out: IC50 (μM) H1299, Effect on Cancer Cells Viability
[21] = NCI-H1299, H1299, cellular ATP levels as in Example 2, read-out: IC50 (μM) H1299, Effect on Cancer Cells Viability
[22] = C33A, cellular ATP levels as in Example 2

T2 sequence (P19111 20-506): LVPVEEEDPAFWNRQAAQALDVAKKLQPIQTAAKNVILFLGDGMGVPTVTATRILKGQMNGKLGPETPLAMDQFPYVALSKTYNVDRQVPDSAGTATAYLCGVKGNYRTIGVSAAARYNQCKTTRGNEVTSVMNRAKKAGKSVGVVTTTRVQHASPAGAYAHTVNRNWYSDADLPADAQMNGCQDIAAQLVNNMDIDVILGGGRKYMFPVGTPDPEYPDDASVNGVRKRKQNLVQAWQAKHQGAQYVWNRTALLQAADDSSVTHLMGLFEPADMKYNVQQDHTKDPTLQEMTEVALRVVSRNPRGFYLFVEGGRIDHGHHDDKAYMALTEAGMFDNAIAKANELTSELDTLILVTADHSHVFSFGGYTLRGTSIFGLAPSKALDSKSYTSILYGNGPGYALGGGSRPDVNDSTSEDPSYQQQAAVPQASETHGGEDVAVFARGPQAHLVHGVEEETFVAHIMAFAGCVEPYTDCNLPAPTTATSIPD
T1 sequence (P05187 23-506): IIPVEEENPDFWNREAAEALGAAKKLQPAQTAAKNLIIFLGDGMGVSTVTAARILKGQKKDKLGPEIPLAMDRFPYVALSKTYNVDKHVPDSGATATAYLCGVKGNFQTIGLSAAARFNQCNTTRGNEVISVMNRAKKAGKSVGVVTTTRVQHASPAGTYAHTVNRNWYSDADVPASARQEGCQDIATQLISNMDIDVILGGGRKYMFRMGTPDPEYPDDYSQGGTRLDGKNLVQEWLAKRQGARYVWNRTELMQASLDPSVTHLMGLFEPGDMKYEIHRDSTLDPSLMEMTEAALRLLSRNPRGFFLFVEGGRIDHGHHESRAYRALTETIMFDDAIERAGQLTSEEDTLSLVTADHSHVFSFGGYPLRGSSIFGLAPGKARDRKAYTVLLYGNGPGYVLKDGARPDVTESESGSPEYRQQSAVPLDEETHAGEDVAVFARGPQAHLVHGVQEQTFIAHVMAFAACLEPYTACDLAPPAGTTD

SMILES: CCOC(=O)COC1=CC(c2cc3ccccc3[nH]2)=N/C1=C\c1[nH]c(C)cc1C [Compound 53]
IC50 [1, 20]: 10.6 µM
IC50 [2]: 10.2 µM

IC50 [1, 21]: 1.11 µM
IC50 [2, 22]: 0.93 µM
SMILES: COc1ccc(NC2=CC(c3cc4ccccc4[nH]3)=N/C2=C\c2[nH]c(C)cc2C)cc1 [Compound 61]

SMILES: COC(=O)CCc1c(C)[nH]c(/C=C2/N=C(c3cc4ccccc4[nH]3)C=C2OC)c1C [Compound 63]
IC50 [1, 20]: 0.753 µM
IC50 [2]: 0.548 µM

SMILES: N.N.[Cl][Pt][Cl] [cisplatin]
Deaths [3]: Two mice died

Precipitation of the formulation [5]: no evidence of precipitation
SMILES: COC1=CC(c2cc3ccccc3[nH]2)=N/C1=C\c1[nH]c(C)cc1C [Compound 1 Mesylate Salt]
Growth of prostatic tumors in mice [4]: significantly reduce the growth of prostatic tumors

Solubility in water (in words) ([6]; water): poorly soluble in water
SMILES: COC1=CC(c2cc3ccccc3[nH]2)=N/C1=C\c1[nH]c(C)cc1C [Compound 1]

IC50 [1, 21]: 1.04 µM
IC50 [2, 22]: 1.11 µM
SMILES: COC1=CC(c2cc3ccccc3n2C(=O)Nc2ccc(N(C)C)cc2)=N/C1=C/c1[nH]c(C)cc1C [Compound 52]

pIC50 [8]: 6.70
pIC50 [9]: 6.70
pIC50 [10]: 6.22
pIC50 [11]: 6.70
pIC50 ([1]; NCI-H1299, H1299, NSCLC, ATP levels 72 h post-treatment, read-out: IC50 of Compound 1 tartrate): 6.30
pIC50 ([2]; C-33A, Cervix, ATP levels 72 h post-treatment compared to untreated cells, read-out: IC50 of Compound 1 tartrate): 6.70
pIC50 [13]: 7.22
pIC50 [14]: 6.40
pIC50 [15]: 6.40
pIC50 [17]: 6.52
SMILES: COC1=CC(c2cc3ccccc3[nH]2)=N/C1=C\c1[nH]c(C)cc1C [Compound 1 tartrate]
Lowering of ATP levels in cancer cell lines H1299 and C33A compared with normal cell lines HMEC and MRC-5 ([7]; 0.5 μM, 72 hours after treatment (FIG. 1)): significantly more effective at lowering ATP levels
Efficacy in decreasing cellular ATP levels, cancer cell lines versus HMEC ([7]; various concentrations, ten cancer cell lines versus HMEC normal mammary epithelial cell line): greater efficacy in decreasing cellular ATP levels in the cancer cell lines
pIC50 [12]: 5.40
Reduction in tumor growth compared to vehicle [16]: statistically significant (p<0.0001) reduction in tumor growth

SMILES: COC1=CC(c2cc3ccccc3n2C(=O)CC(C)(C)c2c(C)cccc2OP(=O)(O)O)=N/C1=C/c1[nH]c(C)cc1C [Compound 66]
Solubility, fold greater than Compound 1 Tartrate [6]: 100 fold
Growth of prostatic tumors in mice [4]: significantly reduce the growth of prostatic tumors
Conversion of pro-drug into Compound 1 [18]: convert a fraction of the pro-drug
Conversion of pro-drug into Compound 1 [19]: convert a fraction of the pro-drug
